Assay results as given in patent publication US12624034B2, “Non-covalent modifiers of AKT1 and uses thereof” (Terremoto Biosciences, Inc., priority 2023, dated 2026).
Like-named read-outs stand apart in the source and are kept apart here.

Legend:
AKT1 E17K = molecular target: T1, AKT1 E17K (Homo sapiens, UniProt P31749, E17K); assay: Live cell AKT1 E17K target engagement by NanoBRET competitive probe displacement in HEK293 cells; assay type: binding; conditions: 2 h at 37° C.
T1 construct: expressed in transfected cells; host or cells: HEK293
T1 sequence (P31749 whole entry E17K): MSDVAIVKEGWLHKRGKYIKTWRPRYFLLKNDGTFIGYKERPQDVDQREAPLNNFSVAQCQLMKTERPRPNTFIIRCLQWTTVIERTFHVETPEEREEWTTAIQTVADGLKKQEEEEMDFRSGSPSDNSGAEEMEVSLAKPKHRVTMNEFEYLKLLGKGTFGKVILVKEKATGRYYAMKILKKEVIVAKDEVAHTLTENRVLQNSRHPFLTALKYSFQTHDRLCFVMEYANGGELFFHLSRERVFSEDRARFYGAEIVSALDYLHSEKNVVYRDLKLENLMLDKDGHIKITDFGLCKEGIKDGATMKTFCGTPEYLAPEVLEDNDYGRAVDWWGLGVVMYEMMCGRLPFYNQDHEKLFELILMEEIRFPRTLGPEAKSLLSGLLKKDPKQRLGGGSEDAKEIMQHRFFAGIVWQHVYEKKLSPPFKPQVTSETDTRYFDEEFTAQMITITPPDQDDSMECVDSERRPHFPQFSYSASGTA
Method: Determining live cell AKT1 E17K, AKT1 WT, and AKT2 target engagement by NanoBRET competitive probe displacement. Live cell target engagement assays were performed as described (Vasta, J. D. et al. Cell Chem Biol 2018, 25(11), 206-214). Briefly, HEK293 cells were transfected with plasmids encoding kinase-NanoLuciferase fusion proteins overnight. Cells were then treated with serial dilutions of compound and an ˜EC50 concentration of fluorescently-tagged ATP-competitive tracer (Promega). After incubation for 2 h at 37° C., luciferase substrate and extracellular luciferase inhibitor were added to all wells, and luminescent intensity at 460 nm and 600 nm were measured on a multimode plate-reader. The ratio of E600/E460 was calculated to give the tracer engagement signal (BRET). IC50 values were calculated by fitting BRET values to a log(inhibitor) vs. response Hill equation.

AKT2 = molecular target: T2, AKT2 (Homo sapiens, UniProt P31751); assay: Live cell AKT2 target engagement by NanoBRET competitive probe displacement in HEK293 cells; assay type: binding; conditions: 2 h at 37° C., read-out: AKT2 IC50
T2 construct: expressed in transfected cells; host or cells: HEK293
T2 sequence (P31751 whole entry): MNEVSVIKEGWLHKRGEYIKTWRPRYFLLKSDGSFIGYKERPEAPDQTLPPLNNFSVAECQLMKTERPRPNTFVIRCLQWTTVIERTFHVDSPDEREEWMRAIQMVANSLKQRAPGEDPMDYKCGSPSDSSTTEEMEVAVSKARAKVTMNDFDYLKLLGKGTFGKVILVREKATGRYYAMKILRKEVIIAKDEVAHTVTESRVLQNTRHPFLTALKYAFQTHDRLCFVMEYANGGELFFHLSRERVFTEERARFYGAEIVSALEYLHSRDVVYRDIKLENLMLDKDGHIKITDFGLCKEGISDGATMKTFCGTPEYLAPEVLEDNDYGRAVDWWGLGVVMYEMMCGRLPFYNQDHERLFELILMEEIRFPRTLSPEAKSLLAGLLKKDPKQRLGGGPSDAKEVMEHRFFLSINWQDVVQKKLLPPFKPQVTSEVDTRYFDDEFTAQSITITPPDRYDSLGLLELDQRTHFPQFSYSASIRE

[1] = system: LAPC4 prostate cancer cells, which express the AKT1 E17K allele; assay: Antiproliferative effects in LAPC4 cells (CellTiter Glo, 72 h); assay type: cell-based; conditions: Homo sapiens, LAPC4, 72 h, read-out: LAPC4 proliferation IC50
Method: Antiproliferative Effects in LAPC4 Cells.
LAPC4 prostate cancer cells (Klein, K. A. et al. Nat Med 1997, 3, 402-408), which express the AKT1 E17K allele, were grown in IMDM media (Hyclone) supplemented with 12% FBS+1% P/S. To assess compound effects on growth, 1,000 cells/well were seeded in 384 well assay plates, incubated with compound dilutions dissolved in DMSO. After 72 h, intracellular ATP content was assessed with CellTiter Glo reagent (Promega) according to the manufacturer's instructions. IC50 values were calculated by fitting luminescence values to a log(inhibitor) vs. response Hill equation.

AKT1 WT = molecular target: T3, AKT1 WT (Homo sapiens, UniProt P31749); assay: Live cell AKT1 WT target engagement by NanoBRET competitive probe displacement in HEK293 cells; assay type: binding; conditions: 2 h at 37° C., read-out: AKT1 WT IC50
T3 construct: expressed in transfected cells; host or cells: HEK293
T3 sequence (P31749 whole entry): as the sequence (P31749 whole entry E17K) above, with K17E counted along it

[2] = NanoBRET live cell target engagement, HEK293 cells
[3] = NanoBRET competitive probe displacement, live HEK293 cells

Compound | IC50 (AKT1 E17K; [2]) [nM] | IC50 (AKT2; [2]) [nM] | IC50 [1] [nM] | IC50 (AKT1 WT; [2]) [nM] | IC50 (AKT1 E17K; [3]) [nM] | IC50 (AKT2; [3]) [nM] | IC50 (AKT1 WT; [3]) [nM]
Nc1ncccc1-c1nc2ccc(-n3cccn3)nc2n1-c1ccc2c(c1)CC[C@@H]2NC(=O)COc1ccon1 [Compound 5, (S)—N-(5-(2-(2-aminopyridin-3-yl)-5-(1H-pyrazol-1-yl)-3H-imidazo[4,5-b]pyridin-3-yl)-2,3-dihydro-1H-inden-1-yl)-2-(isoxazol-3-yloxy)acetamide] | > 1000 | 1410 | 9300 | 129 | – | – | –
Nc1ncccc1-c1nc2ccc(-n3nccn3)nc2n1-c1ccc2c(c1)CC[C@@H]2NC(=O)c1cncnc1 [Compound 59, (S)—N-(5-(2-(2-aminopyridin-3-yl)-5-(2H-1,2,3-triazol-2-yl)-3H-imidazo[4,5-b]pyridin-3-yl)-2,3-dihydro-1H-inden-1-yl)pyrimidine-5-carboxamide] | 261 | 3430 | 3620 | 48.8 | – | – | –
Nc1ncccc1-c1nc2ccc(-n3cccn3)nc2n1-c1ccc2c(c1)CC[C@@H]2NC(=O)c1ccnc(OC(F)(F)F)c1 [Compound 64, (S)—N-(5-(2-(2-aminopyridin-3-yl)-5-(1H-pyrazol-1-yl)-3H-imidazo[4,5-b]pyridin-3-yl)-2,3-dihydro-1H-inden-1-yl)-2-(trifluoromethoxy)isonicotinamide] | 159 | 183 | 2620 | 4.63 | – | – | –
Nc1ncccc1-c1nc2ccc(-n3cccn3)nc2n1-c1ccc2c(c1)CC[C@@H]2NC1CCN(c2ccccn2)CC1 [Compound 277] | 365 | 486 | 2440 | 25.1 | – | – | –
O=C(N[C@H]1CCc2cc(-n3c(-c4ccccc4)nc4ccc(-c5ccn(C6CC6)n5)nc43)ccc21)c1ccc(C(F)F)nc1 [Compound 432] | – | – | 3500 | – | 145 | 1450 | 14.6
Nc1ncccc1-c1nc2ccc(-n3ccc(OCCN4CCOCC4)n3)nc2n1-c1ccc2c(c1)CC[C@@H]2NC1CCN(C(=O)C2CC2)CC1 [Compound 505] | – | – | 4360 | – | 485 | 547 | 17.6
Nc1ncccc1-c1nc2ccc(-n3cccn3)nc2n1-c1ccc2c(c1)CC[C@@H]2NC1CN(c2ccccn2)C1 [Compound 439] | – | – | 3820 | – | 655 | 794 | 15
Nc1ncccc1-c1nc2ccc(-n3cccn3)nc2n1-c1ccc2c(c1)CC[C@@H]2NC1CCN(c2ccccn2)C1 (stereo partly shown) [Compound 387] | 376 | 351 | 4430 | 9.48 | – | – | –
Nc1ncccc1-c1nc2ccc(-n3cccn3)nc2n1-c1ccc2c(c1)CC[C@@H]2NC(=O)c1ccnc2c1CCO2 [Compound 225] | 408 | 343 | 8430 | 11.3 | – | – | –
Nc1ncccc1-c1nc2ccc(-n3cccn3)nc2n1-c1ccc2c(c1)CC[C@@H]2NC(=O)Cc1ccncc1 [Compound 49, N-[(1S)-5-[2-(2-aminopyridin-3-yl)-5-(pyrazol-1-yl)imidazo[4,5-b]pyridin-3-yl]-2,3-dihydro-1H-inden-1-yl]-2-(pyridin-4-yl)acetamide] | > 1000 | 2840 | > 10000 | 199 | – | – | –
COc1cc(C(=O)N[C@H]2CCc3cc(-n4c(-c5cccnc5N)nc5ccc(-n6nccn6)nc54)ccc32)cnc1C(F)F [Compound 364] | 260 | 1110 | 2320 | 20.7 | – | – | –
Nc1ncccc1-c1nc2ccc(-n3cccn3)nc2n1-c1ccc2c(c1)CC[C@@H]2NC1CCN(C(=O)c2ccncc2)CC1 [Compound 360] | > 1000 | 8140 | > 10000 | 483 | – | – | –
Cc1ncccc1C(=O)N[C@H]1CCc2cc(-n3c(-c4cccnc4N)nc4ccc(-n5cccn5)nc43)ccc21 [Compound 29, (S)—N-(5-(2-(2-aminopyridin-3-yl)-5-(1H-pyrazol-1-yl)-3H-imidazo[4,5-b]pyridin-3-yl)-2,3-dihydro-1H-inden-1-yl)-2-methylnicotinamide] | 78.6 | 153 | 3650 | 15.9 | – | – | –
Nc1ncccc1-c1nc2ccc(-n3cccn3)nc2n1-c1ccc2c(c1)CC[C@@H]2NC(=O)c1ccnc2c1OCCO2 [Compound 356] | > 1000 | 1070 | > 10000 | 52.3 | – | – | –
Nc1ncccc1-c1nc2ccc(-n3cccn3)nc2n1-c1ccc2c(c1)CC[C@@H]2NC1CCN(S(=O)(=O)C2CC2)CC1 [Compound 393] | – | – | > 10000 | – | > 1000 | 3850 | 125

Stronger by IC50 [1], values ahead:

IC50 (AKT1 E17K; [2]) [nM] | IC50 (AKT2; [2]) [nM] | IC50 [1] [nM] | IC50 (AKT1 WT; [2]) [nM] | IC50 (AKT1 E17K; [3]) [nM] | IC50 (AKT2; [3]) [nM] | IC50 (AKT1 WT; [3]) [nM] | Compound
64 | 59.5 | 692 | 4.97 | – | – | – | Nc1ncccc1-c1nc2ccc(-n3cccn3)nc2n1-c1ccc2c(c1)CC[C@@H]2NC(=O)c1cnc(C(F)F)c(F)c1 [Compound 62, (S)—N-(5-(2-(2-aminopyridin-3-yl)-5-(1H-pyrazol-1-yl)-3H-imidazo[4,5-b]pyridin-3-yl)-2,3-dihydro-1H-inden-1-yl)-6-(difluoromethyl)-5-fluoronicotinamide]
39.5 | 608 | 2230 | 23.7 | – | – | – | CCc1cn([C@H]2CCc3cc(-n4c(-c5cccnc5N)nc5ccc(-n6cccn6)nc54)ccc32)nn1 [Compound 285]
143 | 98.6 | 1750 | 14.2 | – | – | – | Nc1ncccc1-c1nc2ccc(-n3cccn3)nc2n1-c1ccc2c(c1)CC[C@@H]2NC(=O)c1ccncc1 [Compound 35, N-[(1S)-5-[2-(2-aminopyridin-3-yl)-5-(pyrazol-1-yl)imidazo[4,5-b]pyridin-3-yl]-2,3-dihydro-1H-inden-1-yl]pyridine-4-carboxamide]
112 | 594 | 713 | 45.6 | – | – | – | Nc1ncccc1-c1nc2ccc(-n3cccn3)nc2n1-c1ccc2c(c1)CC[C@@H]2NC(=O)c1ccc(O)c(O)c1 [Compound 323]
10.2 | 66.5 | 560 | 2.41 | – | – | – | Nc1ncccc1-c1nc2ccc(-n3cccn3)nc2n1-c1ccc2c(c1)CC[C@@H]2NC(=O)c1ccc(O)c(F)c1 [Compound 16, (S)—N-(5-(2-(2-aminopyridin-3-yl)-5-(1H-pyrazol-1-yl)-3H-imidazo[4,5-b]pyridin-3-yl)-2,3-dihydro-1H-inden-1-yl)-3-fluoro-4-hydroxybenzamide]
44.4 | 55.5 | 733 | 10.5 | – | – | – | Nc1ncccc1-c1nc2ccc(-n3cccn3)nc2n1-c1ccc2c(c1)CC[C@@H]2NC(=O)c1ccc(C(F)F)nc1 [Compound 18, (S)—N-(5-(2-(2-aminopyridin-3-yl)-5-(1H-pyrazol-1-yl)-3H-imidazo[4,5-b]pyridin-3-yl)-2,3-dihydro-1H-inden-1-yl)-6-(difluoromethyl)nicotinamide]
16.5 | 273 | 1430 | 8.26 | – | – | – | Nc1ncccc1-c1nc2ccc(-n3cccn3)nc2n1-c1ccc2c(c1)CC[C@@H]2NC(=O)c1ccc(O)c(C(F)(F)F)c1 [Compound 257]
20.9 | 30.2 | 1050 | 4.46 | – | – | – | COc1cncc(C(=O)N[C@H]2CCc3cc(-n4c(-c5cccnc5N)nc5ccc(-n6cccn6)nc54)ccc32)c1 [Compound 21, (S)—N-(5-(2-(2-aminopyridin-3-yl)-5-(1H-pyrazol-1-yl)-3H-imidazo[4,5-b]pyridin-3-yl)-2,3-dihydro-1H-inden-1-yl)-5-methoxynicotinamide]
30.1 | 57.4 | 1170 | 6.36 | – | – | – | N#Cc1ccc(C(=O)N[C@H]2CCc3cc(-n4c(-c5cccnc5N)nc5ccc(-n6cccn6)nc54)ccc32)cc1 [Compound 41, N-[(1S)-5-[2-(2-aminopyridin-3-yl)-5-(pyrazol-1-yl)imidazo[4,5-b]pyridin-3-yl]-2,3-dihydro-1H-inden-1-yl]-4-cyanobenzamide]
49 | 123 | 914 | 11 | – | – | – | Nc1ncccc1-c1nc2ccc(-n3cccn3)nc2n1-c1ccc2c(c1)CC[C@@H]2NC(=O)c1cncc(F)c1 [Compound 32, (S)—N-(5-(2-(2-aminopyridin-3-yl)-5-(1H-pyrazol-1-yl)-3H-imidazo[4,5-b]pyridin-3-yl)-2,3-dihydro-1H-inden-1-yl)-5-fluoronicotinamide]
